From patent US7700654B2 (LTS Lohmann Therapie-Systeme AG, priority 2005, dated 2010)

Legend:
[1] = cited from earlier work
[2] = environment; cited from earlier work
[3] = target: T1, human androgen receptor (hAR) (Homo sapiens, UniProt P10275); assay: reporter gene-based (MMTV-luc luciferase) test for antiandrogenic activity in transfected CV1 cells; format: cell-based; conditions: compounds at 10 μM; high R1881 concentration 3×10^−8 M
T1 construct: expressed in transfected cells; host or cells: CV1 monkey kidney cells (lacking endogenous androgen receptor)
T1 sequence (P10275 1-920): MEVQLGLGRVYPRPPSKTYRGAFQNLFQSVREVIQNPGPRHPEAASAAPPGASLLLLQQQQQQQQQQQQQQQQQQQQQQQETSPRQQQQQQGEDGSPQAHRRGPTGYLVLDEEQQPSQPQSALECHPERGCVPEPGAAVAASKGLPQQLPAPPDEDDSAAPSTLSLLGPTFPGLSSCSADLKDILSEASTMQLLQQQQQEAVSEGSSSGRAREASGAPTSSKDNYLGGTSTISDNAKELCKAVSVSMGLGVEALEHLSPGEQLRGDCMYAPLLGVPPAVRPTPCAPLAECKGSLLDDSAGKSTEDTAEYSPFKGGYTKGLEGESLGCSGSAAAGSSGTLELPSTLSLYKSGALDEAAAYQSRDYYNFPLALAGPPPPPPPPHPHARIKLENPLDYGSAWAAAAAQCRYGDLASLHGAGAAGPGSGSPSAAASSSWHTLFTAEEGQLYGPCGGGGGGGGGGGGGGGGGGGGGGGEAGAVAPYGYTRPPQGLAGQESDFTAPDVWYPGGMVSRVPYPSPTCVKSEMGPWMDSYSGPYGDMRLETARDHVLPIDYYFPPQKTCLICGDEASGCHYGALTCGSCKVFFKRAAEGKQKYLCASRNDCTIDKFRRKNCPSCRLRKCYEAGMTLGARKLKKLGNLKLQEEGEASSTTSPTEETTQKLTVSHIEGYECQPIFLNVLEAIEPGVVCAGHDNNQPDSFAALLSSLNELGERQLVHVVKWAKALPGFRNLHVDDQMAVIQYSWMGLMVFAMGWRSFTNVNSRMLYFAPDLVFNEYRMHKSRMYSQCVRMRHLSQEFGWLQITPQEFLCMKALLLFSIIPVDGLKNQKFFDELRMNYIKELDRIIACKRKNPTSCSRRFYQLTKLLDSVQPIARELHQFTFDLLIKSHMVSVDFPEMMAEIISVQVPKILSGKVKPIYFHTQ
Method: Monkey kidney cells, line CV1, lacking endogenous androgen receptor were cultured in Dulbecco's modified Eagle's medium (DMEM), supplemented with 10% (v/v) fetal calf serum, penicillin (100 IU/ml) and streptomycin (100 IU/ml) at 37° C. and 5% CO2.
For the transfection experiments, cells were seeded onto 6-well tissue culture plates (Nunc, Roskilde, Denmark) with a density of 1.2×10^5 cells per well and grown in DMEM medium supplemented with 10% (v/v) dextran-coated activated charcoal stripped serum. Six hours after seeding, the cells were transfected by using the Ca3(PO4)2 method. The human androgen receptor (hAR) expression vector (0.2 μg) was cotransfected with 1 μg of the reporter plasmid MMTV-luc and 0.2 μg of the cytomegalovirus (CMV)-driven β-galactosidase expression […], as internal control for transfection efficiency. After 14 hours, the medium was replaced either without (white bars in FIGS. […] 1), fractions (FIG. 2) or substances (FIG. 3). After an additional 48 hours, cells were harvested and assayed for luciferase and β-galactosidase activity.
Luciferase activity was determined by injecting luciferin and measuring light emission at 562 nm and expressed as relative light units (RLU) by using the values of β-galactosidase activity for normalisation of the luciferase activity. All transfection assays shown were performed in duplicate and were repeated at least twice.
For determining antiandrogenic activity in the various extracts from the bark of P. africanum, the extracts were used at a concentration of 300 μg/ml.
For determining the antiandrogenic activity in the fractions of the selective methylene chloride extracts, 2 μl of the respective fraction was used, corresponding to a final concentration of 30 μg/ml. Fractions F6 to F10 were additionally tested with 4 μl, corresponding to 60 μg/ml final concentration.

[4] = tested on: LNCaP cells; assay: growth inhibition of human prostate carcinoma cells (cell counting); format: cell-based; conditions: 0.1 μM OH—F
Excerpt: The growth of prostate cells and prostate cancer cells is originally dependent on androgens.
The cells were trypsinized and counted using a counting cell chamber on the indicated days.

| Structure (SMILES) | inhibition of the AR-mediated transactivation, compared with NBBS (FIG. 6) [3] | other results |
| --- | --- | --- |
| CCCCNS(=O)(=O)c1ccccc1 [NBBS, N-butylbenzenesulfonamide] |  | solubility in alcohols and benzene ([1]; alcohols and benzene): moderate solubility; solubility in water ([1]; water): practically insoluble; stability [2]: very stable |
| CC(C)(O)C(=O)Nc1ccc([N+](=O)[O-])c(C(F)(F)F)c1 [OH—F, hydroxyflutamide] |  | proliferation of LNCaP cells (FIG. 4) [4]: did not lead to reduction in cell proliferation |
| CCCCNS(=O)(=O)c1cccc(C(F)(F)F)c1 [S10, N-Butyl-3-(trifluoromethyl)benzenesulfonamide] | enhanced antiandrogenic activity |  |
| CCCCCNS(=O)(=O)c1ccccc1 [S9, N-Pentylbenzenesulfonamide] | enhanced the antiandrogenic activity |  |
| CCCCCCCCCCCCNS(=O)(=O)c1ccccc1 [S12, N-Dodecylbenzenesulfonamide] | weakened the androgen antagonistic potency | melting point: 59 to 61 °C |

Continued, in another order:

| inhibition of the AR-mediated transactivation, compared with NBBS (FIG. 6) [3] | Structure (SMILES) | other results |
| --- | --- | --- |
| enhanced the antiandrogenic activity | CC(C)=CCC/C(C)=C/CNS(=O)(=O)c1ccccc1 [S4, N-[(2E)-3,7-Dimethylocta-2,6-diene-1-yl]benzenesulfonamide] |  |
| enhanced antiandrogenic activity | CCCCNS(=O)(=O)c1ccc([N+](=O)[O-])c(C(F)(F)F)c1 [S13, N-Butyl-4-nitro-3-(trifluoromethyl)benzenesulfonamide] |  |
| enhanced antiandrogenic activity | CC(C)=CCC/C(C)=C/CNS(=O)(=O)c1ccc([N+](=O)[O-])c(C(F)(F)F)c1 [S14, N-[(2E)-3,7-Dimethylocta-2,6-diene-1-yl]-4-nitro-3-(trifluoromethyl)-benzenesulfonamide] |  |
| enhanced antiandrogenic activity | CC(C)=CCC/C(C)=C/CNS(=O)(=O)c1cccc(C(F)(F)F)c1 [S11, N-[(2E)-3,7-dimethylocta-2,6-diene-1-yl]-3-(tri-fluoromethyl)benzenesulfonamide] |  |
